PMC3760004 (Cancer research, 2013)
“Also recorded” adds a separate entry of the source.

Key:
ATM [1] = biological target: T1, ATM (Homo sapiens, UniProt Q13315); experiment: Kinativ chemical proteomics profiling in cellular lysates; assay type: binding
ATR [2] = biological target: T2, ATR (Homo sapiens, UniProt Q13535); experiment: as above; assay type: binding
PIP4K2C = PIP4K2C (Homo sapiens, UniProt Q8TBX8); experiment: as above; assay type: binding
PIP5K3 = PIP5K3 (Homo sapiens, UniProt Q9Y2I7); experiment: as above; assay type: binding
SMG1 = SMG1 (Homo sapiens, UniProt Q96Q15); experiment: as above; assay type: binding
ATR [3] = biological target: T2, ATR; experiment: ATR cellular activity, S317 of Chk1 after UV radiation, HCT-116 cells; assay type: cell-based
ATM [4] = biological target: T1, ATM; assay type: cell-based
mTORC1 [5] = biological target: T3, mTORC1 (Homo sapiens, UniProt P42345); details: 0.5 µM inhibitor 1 hour, then 500 µM ATP
mTORC1 [6] = biological target: T3, mTORC1; details: cited from earlier work
T308 of Akt = experiment: Western blot of T308 of Akt in HCT-116 cells; assay type: cell-based; details: Homo sapiens, HCT-116, read-out: EC50, T308 of Akt
H2122 = experiment: Tumor cell growth assay; assay type: cell-based; details: Homo sapiens, NCI-H2122, 72 h
H358 = experiment: Tumor cell growth assay; assay type: cell-based; details: Homo sapiens, NCI-H358, 72 h
H1792 = experiment: Tumor cell growth assay; assay type: cell-based; details: Homo sapiens, NCI-H1792, 72 h
A549 = experiment: Tumor cell growth assay; assay type: cell-based; details: Homo sapiens, A549, 72 h
H441 = experiment: Tumor cell growth assay; assay type: cell-based; details: Homo sapiens, NCI-H441, 72 h
H1355 = experiment: Tumor cell growth assay; assay type: cell-based; details: Homo sapiens, NCI-H1355, 72 h
H460 = experiment: Tumor cell growth assay; assay type: cell-based; details: Homo sapiens, NCI-H460, 72 h
HCT-116 = experiment: Tumor cell growth assay; assay type: cell-based; details: Homo sapiens, HCT-116, 72 h
H1299 = experiment: Tumor cell growth assay; assay type: cell-based; details: Homo sapiens, NCI-H1299, 72 h
H292 = experiment: Tumor cell growth assay; assay type: cell-based; details: Homo sapiens, NCI-H292, 72 h
BT-20 = experiment: Tumor cell growth assay; assay type: cell-based; details: Homo sapiens, BT-20, 72 h
HS578T = experiment: Tumor cell growth assay; assay type: cell-based; details: Homo sapiens, Hs-578T, 72 h
MCF10A = experiment: Tumor cell growth assay; assay type: cell-based; details: Homo sapiens, MCF-10A, 72 h
MCF7 = experiment: Tumor cell growth assay; assay type: cell-based; details: Homo sapiens, MCF7, 72 h
MDAMB231 = experiment: Tumor cell growth assay; assay type: cell-based; details: Homo sapiens, MDA-MB-231, 72 h
SKBR3 = experiment: Tumor cell growth assay; assay type: cell-based; details: Homo sapiens, SK-BR-3, 72 h
Hela = experiment: Tumor cell growth assay; assay type: cell-based; details: Homo sapiens, 72 h
Calu1 = experiment: 72-hour proliferation assay; assay type: cell-based, human
Human mTORC1 complex = Human mTORC1 complex (Homo sapiens, UniProt P42345); experiment: ATP competition assay; details: biochemical kinase assays with increasing ATP concentrations
mTORC2 [7] = biological target: T4, mTORC2 (Homo sapiens, UniProt P42345); experiment: Cellular wash-out assay, AktS473 phosphorylation, HCT116 cells; assay type: cell-based; details: 100 nM for 1 hour, then wash-out
[8] = tested on: human fibroblast AG01522 cell line; experiment: Ionizing irradiation assay, clonogenic cell survival; assay type: cell-based; details: AG01522, added 30min before irradiation
[9] = tested on: HCT116 cells, AktT308 phosphorylation; experiment: Longer-term cellular signaling analysis; assay type: cell-based; details: 100 nM
[10] = tested on: HeLa cells, AktT308 phosphorylation; experiment: Longer-term cellular signaling analysis; assay type: cell-based; details: 100 nM
[11] = tested on: cancer cell lines (HCT116, Hela, Calu 1, H226, H358); experiment: Apoptosis assay, PARP cleavage by western blot; assay type: cell-based; details: 16 hours
Hela cells = experiment: Autophagy assay, acridine orange staining; assay type: cell-based; details: 72 h
[12] = tested on: HCT-116, Hela, Calu-1, H358 and H226; experiment: Autophagy assay, LC3B staining and western blot; assay type: cell-based; details: 5 cell lines, 3 days
Hela S3 cells = experiment: Cell cycle analysis by FACS; assay type: cell-based; details: Hela S3, 48 hrs
KRAS-driven lung tumors = experiment: Tumor volume by MRI in KRAS G12D driven lung cancer model; assay type: in vivo; details: KRAS G12D mice, 4 weeks, Torin2 40 mg/kg q.d., AZD6244 25 mg/kg q.d.
mTOR = experiment: Pharmacodynamics by immunohistochemistry in KRAS G12D lung tumors; assay type: in vivo, Mice
pERK = experiment: as above; assay type: in vivo, Mice; details: for pERK1/2 levels: after 4-week treatment
ATR kinase = experiment: as above; assay type: in vivo, Mice; details: after 4-week treatment
mTORC1 [13] = biological target: T3, mTORC1; details: combined biochemical and cellular profiling summary
mTORC2 [14] = biological target: T4, mTORC2; details: combined biochemical and cellular profiling summary
DNA-PK = DNA-PK (Homo sapiens, UniProt P78527); details: combined biochemical and cellular profiling summary
mTORC1 [15] = biological target: T3, mTORC1; experiment: Cellular wash-out assay, S6KT389 phosphorylation, HCT116 cells; assay type: cell-based; details: 100 nM for 1 hour, then wash-out
[16] = combined biochemical and cellular profiling summary
[17] = 2-day, 40 mg/kg single daily dosing

T1 sequence (Q13315 whole entry, species assumed): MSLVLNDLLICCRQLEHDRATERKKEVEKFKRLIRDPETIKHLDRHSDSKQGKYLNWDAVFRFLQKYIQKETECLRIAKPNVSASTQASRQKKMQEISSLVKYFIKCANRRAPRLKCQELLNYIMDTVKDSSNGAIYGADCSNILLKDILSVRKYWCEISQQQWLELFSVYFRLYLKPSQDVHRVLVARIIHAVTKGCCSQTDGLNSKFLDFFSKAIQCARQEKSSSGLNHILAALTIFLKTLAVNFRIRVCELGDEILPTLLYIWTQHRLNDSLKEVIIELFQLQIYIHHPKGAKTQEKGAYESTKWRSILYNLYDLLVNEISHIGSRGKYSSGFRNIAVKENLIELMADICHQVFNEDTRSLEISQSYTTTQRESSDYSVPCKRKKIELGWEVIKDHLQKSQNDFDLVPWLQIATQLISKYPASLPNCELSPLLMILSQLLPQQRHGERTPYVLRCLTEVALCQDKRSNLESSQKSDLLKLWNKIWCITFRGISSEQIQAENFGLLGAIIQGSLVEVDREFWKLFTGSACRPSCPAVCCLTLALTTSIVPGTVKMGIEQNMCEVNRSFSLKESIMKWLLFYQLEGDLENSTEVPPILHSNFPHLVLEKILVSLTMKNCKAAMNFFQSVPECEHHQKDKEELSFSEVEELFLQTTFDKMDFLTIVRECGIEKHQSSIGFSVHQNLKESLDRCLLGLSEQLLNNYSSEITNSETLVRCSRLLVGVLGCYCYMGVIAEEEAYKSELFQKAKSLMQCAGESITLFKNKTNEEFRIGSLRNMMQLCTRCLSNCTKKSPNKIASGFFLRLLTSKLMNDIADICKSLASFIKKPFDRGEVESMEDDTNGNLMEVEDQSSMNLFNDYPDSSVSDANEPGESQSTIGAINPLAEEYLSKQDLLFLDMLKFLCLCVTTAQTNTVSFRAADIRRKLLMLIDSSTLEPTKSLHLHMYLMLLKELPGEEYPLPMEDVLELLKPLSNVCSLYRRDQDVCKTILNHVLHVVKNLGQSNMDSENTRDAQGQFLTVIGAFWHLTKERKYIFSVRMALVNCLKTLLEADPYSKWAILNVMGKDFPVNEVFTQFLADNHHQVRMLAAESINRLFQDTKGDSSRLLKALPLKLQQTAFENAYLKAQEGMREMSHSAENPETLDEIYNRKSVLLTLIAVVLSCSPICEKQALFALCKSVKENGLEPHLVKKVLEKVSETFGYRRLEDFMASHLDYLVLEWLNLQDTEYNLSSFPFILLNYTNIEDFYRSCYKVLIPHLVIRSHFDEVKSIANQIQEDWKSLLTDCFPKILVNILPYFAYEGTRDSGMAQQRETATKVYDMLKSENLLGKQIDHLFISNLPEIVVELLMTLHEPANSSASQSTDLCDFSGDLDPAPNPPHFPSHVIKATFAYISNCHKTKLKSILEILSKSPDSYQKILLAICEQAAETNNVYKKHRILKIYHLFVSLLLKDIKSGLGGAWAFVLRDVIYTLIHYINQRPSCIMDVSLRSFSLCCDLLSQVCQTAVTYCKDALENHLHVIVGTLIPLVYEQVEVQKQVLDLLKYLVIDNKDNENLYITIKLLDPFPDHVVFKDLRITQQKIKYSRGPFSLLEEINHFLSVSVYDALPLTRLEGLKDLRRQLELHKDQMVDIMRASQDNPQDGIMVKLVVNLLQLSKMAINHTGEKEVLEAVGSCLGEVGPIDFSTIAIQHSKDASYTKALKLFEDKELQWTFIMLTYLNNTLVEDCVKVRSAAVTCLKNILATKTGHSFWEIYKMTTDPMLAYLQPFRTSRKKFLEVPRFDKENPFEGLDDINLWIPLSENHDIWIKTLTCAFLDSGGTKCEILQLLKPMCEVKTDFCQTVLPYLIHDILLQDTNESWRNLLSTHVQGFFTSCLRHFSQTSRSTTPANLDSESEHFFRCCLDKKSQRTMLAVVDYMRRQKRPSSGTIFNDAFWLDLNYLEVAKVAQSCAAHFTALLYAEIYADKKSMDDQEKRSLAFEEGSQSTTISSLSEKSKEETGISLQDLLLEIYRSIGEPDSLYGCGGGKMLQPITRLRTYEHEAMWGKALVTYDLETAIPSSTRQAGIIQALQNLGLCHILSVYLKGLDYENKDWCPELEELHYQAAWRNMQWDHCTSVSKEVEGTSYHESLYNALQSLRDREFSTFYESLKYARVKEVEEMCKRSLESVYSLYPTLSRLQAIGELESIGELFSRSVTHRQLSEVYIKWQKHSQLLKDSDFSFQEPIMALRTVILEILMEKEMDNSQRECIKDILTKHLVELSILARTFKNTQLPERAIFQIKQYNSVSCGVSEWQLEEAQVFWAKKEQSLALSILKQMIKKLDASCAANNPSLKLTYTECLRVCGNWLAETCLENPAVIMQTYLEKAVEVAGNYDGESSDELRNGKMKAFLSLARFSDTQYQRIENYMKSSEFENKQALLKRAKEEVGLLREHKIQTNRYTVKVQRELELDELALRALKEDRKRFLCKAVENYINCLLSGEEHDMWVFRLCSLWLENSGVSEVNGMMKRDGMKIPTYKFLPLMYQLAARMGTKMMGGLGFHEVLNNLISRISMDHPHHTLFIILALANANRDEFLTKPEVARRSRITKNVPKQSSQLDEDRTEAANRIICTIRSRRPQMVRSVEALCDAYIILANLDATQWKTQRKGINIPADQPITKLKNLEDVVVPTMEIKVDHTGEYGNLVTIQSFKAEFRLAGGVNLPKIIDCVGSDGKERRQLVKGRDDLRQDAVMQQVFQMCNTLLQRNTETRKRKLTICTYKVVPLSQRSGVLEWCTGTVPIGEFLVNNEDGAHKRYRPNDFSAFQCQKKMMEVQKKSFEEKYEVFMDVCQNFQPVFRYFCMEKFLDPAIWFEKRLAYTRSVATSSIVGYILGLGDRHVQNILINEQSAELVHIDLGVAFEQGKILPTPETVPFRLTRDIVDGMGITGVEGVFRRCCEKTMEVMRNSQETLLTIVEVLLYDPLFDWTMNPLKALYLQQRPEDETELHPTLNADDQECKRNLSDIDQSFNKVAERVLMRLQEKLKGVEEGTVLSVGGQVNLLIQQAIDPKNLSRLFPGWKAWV
PIP4K2C, sequence (Q8TBX8 whole entry, species assumed): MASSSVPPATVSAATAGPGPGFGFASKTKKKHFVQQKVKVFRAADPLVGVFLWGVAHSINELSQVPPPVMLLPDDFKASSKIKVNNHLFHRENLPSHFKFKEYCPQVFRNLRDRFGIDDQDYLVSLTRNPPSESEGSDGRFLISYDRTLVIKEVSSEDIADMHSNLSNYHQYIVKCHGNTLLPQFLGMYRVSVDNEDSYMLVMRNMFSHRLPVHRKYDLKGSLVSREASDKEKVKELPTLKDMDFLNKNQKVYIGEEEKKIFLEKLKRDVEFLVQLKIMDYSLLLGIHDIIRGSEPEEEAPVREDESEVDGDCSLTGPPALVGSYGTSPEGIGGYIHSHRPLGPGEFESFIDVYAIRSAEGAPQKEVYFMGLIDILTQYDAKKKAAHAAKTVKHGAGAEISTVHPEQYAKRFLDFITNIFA

CCC(=O)N1CCN(c2ccc(-n3c(=O)ccc4cnc5ccc(-c6cnc7ccccc7c6)cc5c43)cc2C(F)(F)F)CC1 [Torin1, 1-(4-(4-propionylpiperazin-1-yl)-3-(trifluoromethyl)phenyl)-9-(quinolin-3-yl)benz o[h][1,6]naphthyridin-2(1H)-one]
IC50 (ATM [1]): 640 nM | IC50 (ATR [2]): < 10 nM | IC50 (PIP4K2C): > 10000 nM | IC50 (PIP5K3): > 10000 nM | IC50 (SMG1): 4400 nM | EC50 (ATR [3]): > 1000 nM | EC50 (ATM [4]): > 1000 nM | duration of sustained inhibition of mTORC1 kinase activity after removal of drug (mTORC1 [5]; 4EBP1 phosphorylation): approximately 75 minutes | duration of suppression of S6K T389 phosphorylation after removal of the drug (mTORC1 [6]): up to 16 h

Nc1ccc(-c2ccc3ncc4ccc(=O)n(-c5cccc(C(F)(F)F)c5)c4c3c2)cn1 [Torin2, 9-(6-aminopyridin-3-yl)-1-(3-(trifluoromethyl)phenyl)benzo[h][1,6]naphthyridin-2(1H)-one]
EC50 (T308 of Akt): < 10 nM | concentration at which ATR is inhibited (ATR [3]; [16]): 20 to 100 nM | concentration at which ATM is inhibited (ATM [4]; [16]): 20 to 100 nM | GI50 (H2122): 13.2 nM | GI50 (H358): 105 nM | GI50 (H1792): 19.8 nM | GI50 (A549): 31.1 nM | GI50 (H441): 20.5 nM | GI50 (H1355): 25.8 nM | GI50 (H460): 45.7 nM | GI50 (HCT-116): 60.7 nM | GI50 (H1299): 23.6 nM | GI50 (H292): 10.1 nM | GI50 (BT-20): 219 nM | GI50 (HS578T): 62.4 nM | GI50 (MCF10A): 32.1 nM | GI50 (MCF7): 41.1 nM | GI50 (MDAMB231): 108 nM | GI50 (SKBR3): 123 nM | GI50 (Hela): 29.3 nM | sensitivity of proliferation, Calu1 (Calu1): relatively more resistant | mode of mTOR inhibition (Human mTORC1 complex): ATP-competitive fashion | time for AktS473 phosphorylation (mTORC2 function) to recover after wash-out (mTORC2 [7]): approximately 4 hours | sensitization of IR treatment, clonogenic survival [8]: dose dependent sensitization of the IR treatment | recovery of AktT308 phosphorylation by 72 hours [9]: partially | recovery of AktT308 phosphorylation by 72 hours [10]: completely recovered | apoptosis (PARP cleavage) in H358 [11]: induced strong apoptosis | punctate acridine orange staining (autophagy) (Hela cells): dose dependent increase in punctate acridine staining | LC3-1/II autophagosome markers [12]: dose dependent increase of LC3-1/II autophagosome markers | cell cycle distribution by flow cytometry (Hela S3 cells): dose-dependent decrease in G1 cells and an increase in S-phase, sub-G1 phase cells and cell death | tumor volume / tumor growth by MRI (KRAS-driven lung tumors): did not yield significant efficacy; also recorded: neither Torin2 (40 mg/kg, q.d.) nor AZD6244 (25 mg/kg, q.d.) alone resulted in a significant inhibition of tumor volume | pAkt(T308) by immunohistochemistry (mTOR; [17]): partly suppressed | pS6K(T389) and p4EBP1(T37/46) by immunohistochemistry (mTOR; [17]): strongly suppressed | pS6K(T389) and p4EBP1(T37/46) levels (mTOR; after 4-week treatment): showed some recovery | pERK1/2 levels (pERK): significantly increased | pCHK1(S345) (ATR kinase): slightly decreased | concentration at which mTORC1 is inhibited (mTORC1 [13]): less than 10 nM | concentration at which mTORC2 is inhibited (mTORC2 [14]): less than 10 nM | concentration at which PI3K is inhibited (PI3K; [16]): above 200 nM | EC50 (PI3K; read-out: apparent EC50 against T308 with S473D mutant of Akt, PC3 AktS473D cell line): 200 nM | concentration at which DNA-PK is inhibited (DNA-PK): 20 to 100 nM | recovery of mTORC1 kinase activity after removal of drug (mTORC1 [5]; about 75 minutes window): sustained inhibition of mTORC1

Cn1cnc2c(F)c(Nc3ccc(Br)cc3Cl)c(C(=O)NOCCO)cc21 [AZD6244]
tumor volume / tumor growth by MRI (KRAS-driven lung tumors): neither Torin2 (40 mg/kg, q.d.) nor AZD6244 (25 mg/kg, q.d.) alone resulted in a significant inhibition of tumor volume | pERK by immunohistochemistry (pERK; 2-day, AZD6244 25 mg/kg): profound inhibition | pERK1/2 levels (pERK): slightly recovered

COc1ccc(-c2ccc3c(N4CCOC[C@@H]4C)nc(N4CCOC[C@@H]4C)nc3n2)cc1CO [AZD8055, reference compound]
sensitivity of proliferation, Calu1 (Calu1): relatively more resistant | time for S6KT389 phosphorylation (mTORC1 function) to recover after wash-out (mTORC1 [15]): ≤ 1 h | time for AktS473 phosphorylation (mTORC2 function) to recover after wash-out (mTORC2 [7]): ≤ 1 h
